Earlier results, collected in patent US11357858B2, “Pharmaceutical compositions for the treatment of postoperative pain” (FIDIA FARMACEUTICI S.P.A., priority 2018, dated 2022).
Counter-ions that a name gives are not always drawn.

Conditions: in vivo

SMILES: CCCN1CCCC[C@H]1C(=O)Nc1c(C)cccc1C [ropivacaine HCl]
- maximum dose which can be administered without the onset of side effects: about 2.5 mg/kg
